“Also recorded” adds a separate entry of the source.
Legend:
[1] = phase II clinical trials; cited from earlier work
glycine transporter-1 = biological target: T1, glycine transporter-1 (Homo sapiens, UniProt P48067); settings: clinical studies, supplement of sarcosine; cited from earlier work
T1 construct: host or cells: human patients (endogenous transporter)
T1 sequence (P48067 1-706): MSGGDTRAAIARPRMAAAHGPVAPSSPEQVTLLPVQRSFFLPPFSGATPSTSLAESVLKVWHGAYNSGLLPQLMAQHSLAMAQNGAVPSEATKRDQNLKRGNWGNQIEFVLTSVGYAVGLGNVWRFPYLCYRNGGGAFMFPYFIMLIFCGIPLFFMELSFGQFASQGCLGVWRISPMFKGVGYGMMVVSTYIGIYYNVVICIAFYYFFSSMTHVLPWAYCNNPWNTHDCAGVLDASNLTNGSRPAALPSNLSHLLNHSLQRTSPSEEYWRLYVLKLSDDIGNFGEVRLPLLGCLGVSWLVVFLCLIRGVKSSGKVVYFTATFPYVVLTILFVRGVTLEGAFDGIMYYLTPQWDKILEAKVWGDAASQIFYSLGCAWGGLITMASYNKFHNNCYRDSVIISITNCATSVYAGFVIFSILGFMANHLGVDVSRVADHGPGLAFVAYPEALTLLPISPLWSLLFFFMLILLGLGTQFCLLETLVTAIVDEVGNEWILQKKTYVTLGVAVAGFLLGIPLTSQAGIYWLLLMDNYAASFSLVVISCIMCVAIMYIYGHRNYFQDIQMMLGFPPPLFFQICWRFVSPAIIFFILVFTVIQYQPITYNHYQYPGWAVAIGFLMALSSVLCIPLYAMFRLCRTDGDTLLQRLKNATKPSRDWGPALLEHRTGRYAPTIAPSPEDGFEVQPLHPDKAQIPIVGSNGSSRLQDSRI

GNMT knockout mice = assay: Prepulse inhibition (PPI) of acoustic startle reflex in drug-treated GNMT knockout mice; type: in vivo, mouse
Protocol: The apparatus consisted of two startle chambers (Med Associates, Georgia, Vt.). One mouse selected from the WT control group and the other selected from GNMT deficient group were tested simultaneously. Each mouse was put into the PPI chamber for a 5-min acclimatization period with a […] background noise. Following this period, 10 startle pulses (120 dB, 40 ms duration) were presented with an average inter-trial interval of 15 s. Then, no stimulus (background noise, 68 dB), prepulses alone (72, 76 and 84 dB, 20 ms duration), startle pulses alone, and prepulses followed 80 ms later by startle pulses were presented six times randomly distributed over the next 20 min. […]
In view of the observed deficits in prepulse inhibition (PPI) of the acoustic startle reflex in GNMT knockout mice, we administered clozapine (a […] anti-schizophrenic drug, 1 mg/kg) to the GNMT knockout mice, and evaluated the therapeutic effects on schizophrenia. […]
Another hypothesis of schizophrenia pathology is that neuropsychiatric disorder may be associated with the dysfunction of N-methyl-D-aspartate (NMDA) receptor, a glutamate receptor. […] Therefore, in a further experiment, sarcosine (100 mg/kg) is administered to the GNMT knockout mice, and evaluated its therapeutic effects on schizophrenia.

CNCC(=O)O [sarcosine]
symptoms of depression [1]: effective to ameliorate symptoms of depression
symptoms of schizophrenia (glycine transporter-1): can improve the symptoms of schizophrenia
level of startle amplitude (GNMT knockout mice; sarcosine 100 mg/kg (FIG. 10)): unaffected
percent PPI of ASR (GNMT knockout mice; sarcosine 100 mg/kg, compared with solvent control (FIG. 11)): significantly induced PPI; also recorded: significantly ameliorated deficits in prepulse inhibition

Reference: patent publication US8697939B2, “Mouse model for depression, schizophrenia and alzheimer's disease and the use thereof” (National Yang Ming University, priority 2009, dated 2014)
